Test results from ChEMBL document CHEMBL5614438, “CETZOLE Analogs as Potent Ferroptosis Inducers and Their Target Identification Using Covalent/Affinity Probes” (J Med Chem, 2024).
Calls of active or inactive are those of the source. No cut-off for these calls is given here.

What was measured:
NCI-H522 [1] = test: Cytotoxicity against human NCI-H522 cells assessed as reduction in cell viability incubated for 3 days by methylene blue staining based spectrophotometric analysis; assay type: functional; conditions: NCI-H522, 72 h, time 3 day
MDA-MB-231 = test: Cytotoxicity against human MDA-MB-231 cells assessed as reduction in cell viability incubated for 3 days by methylene blue staining based spectrophotometric analysis; assay type: functional; conditions: MDA-MB-231, 72 h, time 3 day
HT-1080 [2] = test: Cytotoxicity against human HT-1080 cells assessed as reduction in cell viability incubated for 3 days by methylene blue staining based spectrophotometric analysis; assay type: functional; conditions: HT-1080, 72 h, time 3 day
NCI-H522 [3] = test: Induction of ferroptosis in human NCI-H522 cells assessed as reduction in cell viability at 13.68 uM incubated for 3 days in presence of liproxstatin-1 by methylene blue staining based spectrophotometric analysis; assay type: functional; conditions: time 3.0 day
NCI-H522 [4] = test: Cytotoxicity against human NCI-H522 cells overexpressing GFP-tagged SLC7A11 assessed as reduction in cell viability incubated for 3 days by methylene blue staining based spectrophotometric analysis; assay type: functional; conditions: NCI-H522, 72 h, time 3 day
U2OS = test: Cytotoxicity against human U2OS cells assessed as reduction in cell viability incubated for 3 days by methylene blue staining based spectrophotometric analysis; assay type: functional; conditions: 72 h, time 3 day
NCI-H522 [5] = test: Cytotoxicity against human NCI-H522 cells overexpressing GFP-tagged RV assessed as reduction in cell viability incubated for 3 days by methylene blue staining based spectrophotometric analysis; assay type: functional; conditions: NCI-H522, 72 h, time 3 day
MEF [6] = test: Cytotoxicity against mouse MEF cells assessed as reduction in cell viability at 1 uM incubated for 3 days by methylene blue staining based spectrophotometric analysis; assay type: toxicity; conditions: 72 h, time 3 day
[7] = molecular target: T1, Peroxiredoxin-4 (Homo sapiens) (UniProt Q13162); test: Inhibition of PRDX4 (unknown origin)
T1 sequence (whole entry): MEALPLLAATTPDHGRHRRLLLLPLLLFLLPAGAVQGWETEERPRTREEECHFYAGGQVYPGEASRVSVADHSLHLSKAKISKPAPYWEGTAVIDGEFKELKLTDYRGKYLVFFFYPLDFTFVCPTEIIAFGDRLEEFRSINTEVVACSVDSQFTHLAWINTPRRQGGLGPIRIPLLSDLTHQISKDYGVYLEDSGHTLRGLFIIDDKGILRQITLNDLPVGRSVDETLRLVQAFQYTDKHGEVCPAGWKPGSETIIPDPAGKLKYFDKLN

HT-1080 [8] = test: Cytotoxicity against human HT-1080 cells assessed as reduction in cell viability at 1 uM incubated for 3 days by methylene blue staining based spectrophotometric analysis; assay type: functional; conditions: time 3.0 day
NCI-H522 [9] = test: Induction of ferroptosis in human NCI-H522 cells assessed as increase in intracellular lipid peroxidation accumulation at 7.68 uM incubated for 6 hrs by C11 BODIPY 581/591 staining based flow cytometry; assay type: functional, cell-based
NCI-H522 [10] = test: Cytotoxicity against human NCI-H522 cells assessed as reduction in cell viability at 1 uM incubated for 3 days by methylene blue staining based spectrophotometric analysis; assay type: functional; conditions: time 3.0 day
WI-38 [11] = test: Cytotoxicity against human WI-38 cells assessed as reduction in cell viability at 1 uM incubated for 3 days by methylene blue staining based spectrophotometric analysis; assay type: toxicity; conditions: wi-38, 72 h, time 3 day
[12] = molecular target: Glucose-6-phosphate 1-dehydrogenase (Homo sapiens) (UniProt P11413); test: Inhibition of G6PD in human HCT-116 cells using G6P as substrate at 100 uM incubated for 20 mins followed by G6P and […]; assay type: cell-based
NCI-H522 [13] = test: Induction of ferroptosis in human NCI-H522 cells assessed as reduction in cell viability at 7.68 uM incubated for 3 days in presence of liproxstatin-1 by methylene blue staining based spectrophotometric analysis; assay type: functional; conditions: time 3.0 day
NCI-H522 [14] = test: Induction of cell death in human NCI-H522 cells at 10 uM incubated for 4 to 5 hrs by live cell imaging analysis relative to control; assay type: functional; conditions: time 4-5 hrs
NCI-H522 [15] = test: Induction of cell death in human NCI-H522 cells at 10 uM incubated for 4 to 5 hrs by live cell imaging analysis; assay type: functional, cell-based; conditions: time 4-5 hrs
NCI-H522 [16] = test: Induction of ferroptosis in human NCI-H522 cells assessed as cell viability incubated for 3 days in presence of liproxstatin-1 by methylene blue staining based spectrophotometric analysis relative to control; assay type: functional; conditions: time 3 day
NCI-H522 [17] = test: Induction of ferroptosis in human NCI-H522 cells assessed as increase in intracellular lipid peroxidation accumulation at 4.08 uM incubated for 6 hrs by C11 BODIPY 581/591 staining based flow cytometry; assay type: functional, cell-based
[18] = molecular target: Glucose-6-phosphate 1-dehydrogenase (Homo sapiens) (UniProt P11413); test: Inhibition of G6PD in human HCT-116 cells using G6P as substrate at 25 uM incubated for 20 mins followed by G6P and […]; assay type: cell-based
WI-38 [19] = test: Cytotoxicity against human WI-38 cells assessed as reduction in cell viability incubated for 3 days by methylene blue staining based spectrophotometric analysis; assay type: toxicity; conditions: wi-38, 72 h, time 3 day
NCI-H522 [20] = test: Induction of cell death in human NCI-H522 cells at 10 uM incubated for 3 to 4 hrs by live cell imaging analysis relative to control; assay type: functional; conditions: time 3-4 hrs
NCI-H522 [21] = test: Induction of ferroptosis in human NCI-H522 cells assessed as reduction in cell viability at 3.3 uM incubated for 3 days in presence of liproxstatin-1 by methylene blue staining based spectrophotometric analysis; assay type: functional; conditions: time 3.0 day
MEF [22] = test: Cytotoxicity against mouse MEF cells assessed as reduction in cell viability incubated for 3 days by methylene blue staining based spectrophotometric analysis; assay type: toxicity; conditions: 72 h, time 3 day

Chain of Glucose-6-phosphate 1-dehydrogenase (Homo sapiens) (P11413 whole entry): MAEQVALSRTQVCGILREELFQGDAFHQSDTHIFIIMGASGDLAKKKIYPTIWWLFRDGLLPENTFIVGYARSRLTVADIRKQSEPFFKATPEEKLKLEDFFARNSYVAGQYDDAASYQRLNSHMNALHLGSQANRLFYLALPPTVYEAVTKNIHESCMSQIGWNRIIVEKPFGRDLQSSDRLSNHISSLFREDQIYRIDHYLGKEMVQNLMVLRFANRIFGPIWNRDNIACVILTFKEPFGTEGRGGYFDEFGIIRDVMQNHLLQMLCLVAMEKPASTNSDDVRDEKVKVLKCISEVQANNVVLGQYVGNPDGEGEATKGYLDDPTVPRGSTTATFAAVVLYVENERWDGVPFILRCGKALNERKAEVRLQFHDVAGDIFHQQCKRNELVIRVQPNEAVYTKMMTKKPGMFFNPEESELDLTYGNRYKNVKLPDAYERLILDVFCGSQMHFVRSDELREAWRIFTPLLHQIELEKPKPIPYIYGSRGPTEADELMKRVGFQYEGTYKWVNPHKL

C#Cc1nc(C2=C(C)C(NC(=O)c3cc4ccc(N(CC)CC)cc4oc3=O)CC2)cs1 (stereo not given)
CC50 (NCI-H522 [1]): 4.56 µM
CC50 (MDA-MB-231): 1.2 µM
CC50 (HT-1080 [2]): 4.58 µM
Activity (NCI-H522 [3]): inactive

C#CCCC(=O)Nc1ccc(C(=O)c2ccc(NC(=O)CO/N=C3\CC(c4csc(Br)n4)=C(C)C3O)cc2)cc1 (stereo not given)
CC50 (NCI-H522 [1]): > 20 µM
CC50 (MDA-MB-231): > 20 µM
CC50 (HT-1080 [2]): > 20 µM

C#Cc1nc(C2=C(C)C(O)/C(=N/O)C2)cs1 (stereo not given)
CC50 (NCI-H522 [4]): > 20 µM
CC50 (U2OS): > 20 µM
CC50 (NCI-H522 [1]): 4.68 µM
CC50 (MDA-MB-231): 6.57 µM
CC50 (NCI-H522 [5]): 5.55 µM
CC50 (HT-1080 [2]): 5.77 µM

C#Cc1nc(C2=C(C)C(O)/C(=N\OCc3ccccc3)C2)cs1 (stereo not given)
CC50 (NCI-H522 [4]): 2.17 µM
CC50 (U2OS): > 20 µM
CC50 (NCI-H522 [1]): 1.18 µM
CC50 (MDA-MB-231): 13.4 µM
CC50 (NCI-H522 [5]): 3.02 µM
CC50 (HT-1080 [2]): 0.93 µM

CC1=C(c2csc(Br)n2)CCC1O (stereo not given)
CC50 (NCI-H522 [1]): > 20 µM
CC50 (MDA-MB-231): > 20 µM
CC50 (HT-1080 [2]): > 20 µM

C#Cc1nc(C2=C(C)C(O)CC2)cs1 (racemic)
CC50 (NCI-H522 [4]): 10.3 µM
Activity (MEF [6]): Non-Toxic
inhibition [7]: inactive
Activity (HT-1080 [8]): inactive
Activity (NCI-H522 [9]): Active
CC50 (U2OS): 14.9 µM
Activity (NCI-H522 [10]): inactive
Activity (WI-38 [11]): Non-Toxic
inhibition [12]: Active
CC50 (MDA-MB-231): 6.28 µM
CC50 (HT-1080 [2]): 3.07 µM
Activity (NCI-H522 [13]): inactive
Activity (NCI-H522 [14]): 50%
Activity (NCI-H522 [15]): Active

C#Cc1nc(C2=C(C)C(=O)NCC2)cs1
CC50 (NCI-H522 [4]): 20.2 µM
CC50 (U2OS): 7.81 µM
CC50 (NCI-H522 [1]): 5.4 µM
CC50 (MDA-MB-231): 9.32 µM
CC50 (NCI-H522 [5]): 10.9 µM
CC50 (HT-1080 [2]): 4.89 µM

CCN(CC)c1ccc2cc(C(=O)NC3CCC(c4csc(Br)n4)=C3C)c(=O)oc2c1 (stereo not given)
CC50 (NCI-H522 [1]): > 20 µM
CC50 (MDA-MB-231): > 20 µM
CC50 (HT-1080 [2]): > 20 µM

C#Cc1nc(C2=C(C)/C(=N/OCc3ccccc3)CC2)cs1
CC50 (NCI-H522 [4]): 2.41 µM
Activity (MEF [6]): Non-Toxic
Activity (HT-1080 [8]): Active
CC50 (U2OS): 19.3 µM
Activity (NCI-H522 [16]): 85%
Activity (NCI-H522 [10]): Active
Activity (WI-38 [11]): Non-Toxic
CC50 (NCI-H522 [1]): 1.36 µM
CC50 (MDA-MB-231): 4.17 µM
CC50 (NCI-H522 [5]): 2.54 µM
CC50 (HT-1080 [2]): 0.81 µM
Activity (NCI-H522 [14]): 50%
Activity (NCI-H522 [15]): Active
Activity (NCI-H522 [17]): Active

COc1ccc(N(C(=O)CCl)C(C(=O)NCCc2ccccc2)c2cccs2)cc1Cl (stereo not given)
inhibition [7]: inactive
inhibition [18]: Active

C#Cc1nc(C2=C(C)C(OC(=O)CCCCCCC)/C(=N/OC(=O)CCCCCCC)C2)cs1 (stereo not given)
CC50 (NCI-H522 [4]): > 20 µM
CC50 (U2OS): > 20 µM
CC50 (NCI-H522 [1]): > 20 µM
CC50 (MDA-MB-231): 19.1 µM
CC50 (NCI-H522 [5]): > 20 µM
CC50 (HT-1080 [2]): > 20 µM

CC1=C(c2csc(Br)n2)C/C(=N\OCC(=O)Nc2ccc3oc(=O)c(C)cc3c2)C1=O
CC50 (NCI-H522 [1]): > 20 µM
CC50 (MDA-MB-231): > 20 µM
CC50 (HT-1080 [2]): > 20 µM

C#Cc1nc(C2=C(C)C(=O)/C(=N/O)C2)cs1
CC50 (NCI-H522 [4]): > 20 µM
CC50 (U2OS): > 20 µM
CC50 (NCI-H522 [1]): > 20 µM
CC50 (MDA-MB-231): 8.05 µM
CC50 (NCI-H522 [5]): > 20 µM
CC50 (HT-1080 [2]): 5.29 µM

C#Cc1nc(C2=C(C)C(OC(=O)C(c3ccccc3)c3ccccc3)/C(=N\OC(=O)C(c3ccccc3)c3ccccc3)C2)cs1 (stereo not given)
CC50 (NCI-H522 [4]): 9.34 µM
CC50 (U2OS): 9.1 µM
CC50 (NCI-H522 [1]): 3.5 µM
CC50 (MDA-MB-231): 14.9 µM
CC50 (NCI-H522 [5]): 5.02 µM
CC50 (HT-1080 [2]): 1.85 µM

C#Cc1nc(C2=C(C)C(=O)/C(=N/OC(C)=O)C2)cs1
CC50 (NCI-H522 [4]): > 20 µM
CC50 (U2OS): > 20 µM
CC50 (NCI-H522 [1]): 11 µM
CC50 (MDA-MB-231): 18.5 µM
CC50 (NCI-H522 [5]): > 20 µM
CC50 (HT-1080 [2]): > 20 µM

C#Cc1nc(C2=C(C)C(OC(=O)c3ccccc3)/C(=N\OC(=O)c3ccccc3)C2)cs1 (stereo not given)
CC50 (NCI-H522 [4]): 0.84 µM
CC50 (U2OS): 0.22 µM
CC50 (NCI-H522 [1]): 0.55 µM
CC50 (MDA-MB-231): 0.54 µM
CC50 (NCI-H522 [5]): 0.58 µM
CC50 (HT-1080 [2]): 0.08 µM

C#CCO/N=C1\CC(c2csc(Br)n2)=C(C)C1O (stereo not given)
CC50 (NCI-H522 [1]): > 20 µM
CC50 (MDA-MB-231): > 20 µM
CC50 (HT-1080 [2]): > 20 µM

COC(=O)c1ccc([C@H]2c3[nH]c4ccccc4c3C[C@H](C(=O)OC)N2C(=O)CCl)cc1
CC50 (NCI-H522 [4]): 2.84 µM
Activity (MEF [6]): Toxic
Activity (HT-1080 [8]): Active
CC50 (WI-38 [19]): 0.05 µM
CC50 (U2OS): 2.46 µM
Activity (NCI-H522 [10]): Active
Activity (WI-38 [11]): Toxic
CC50 (NCI-H522 [1]): 1.1 µM
CC50 (MDA-MB-231): 0.22 µM
CC50 (NCI-H522 [5]): 0.31 µM
Activity (NCI-H522 [20]): 50%
CC50 (HT-1080 [2]): 0.14 µM
Activity (NCI-H522 [21]): inactive
CC50 (MEF [22]): 0.04 µM

C#Cc1nc(C2=C(C)C(=O)/C(=N/OCC(=O)Nc3ccc4oc(=O)c(C)cc4c3)C2)cs1
CC50 (NCI-H522 [1]): > 20 µM
CC50 (MDA-MB-231): > 20 µM
CC50 (HT-1080 [2]): > 20 µM

C#Cc1nc(C2=C(C)C(OC(=O)C(C)(C)C)/C(=N\OC(=O)C(C)(C)C)C2)cs1 (stereo not given)
CC50 (NCI-H522 [4]): 0.387 µM
CC50 (U2OS): 3.39 µM
CC50 (NCI-H522 [1]): 0.411 µM
CC50 (MDA-MB-231): 0.44 µM
CC50 (NCI-H522 [5]): 0.472 µM
CC50 (HT-1080 [2]): 0.033 µM
